Here are results for two compounds from patent publication US20240316074A1 (priority 2021, published 2024).

≈ marks a conversion by molar mass, not a printed value.

Common to all, as to format: cell-based
In experiment [1] the test system is SARS-CoV-2 variant B.1.1.7. As to the kind of experiment: microbe, parasite or virus in culture. Particulars: Severe acute respiratory syndrome coronavirus 2, Vero C1008.
In experiment [2] the test system is SARS-CoV-2 variant B.1.351. As to the kind of experiment: microbe, parasite or virus in culture. The note with it: Severe acute respiratory syndrome coronavirus 2, Vero C1008.
In experiment [3] the test system is SARS-CoV-2 spike pseudotyped lentivirus. As to the kind of experiment: organism not typed. Particulars: HEK-293T, read-out: IC50, concentration which reduced pseudovirus infections by half.

Regarding `CCCCCc1cc(O)c(C/C=C(\C)CCC=C(C)C)c(O)c1C(=O)O` [CBGA, Cannabigerolic acid], the results for the IC50 in experiment [1], in experiment [2] and in experiment [3] were 26 µg/mL (≈ 72.1 µM), 37 µg/mL (≈ 103 µM) and 8.4 µg/mL (≈ 23.3 µM), respectively.
For `C=C(C)[C@@H]1CCC(C)=C[C@H]1c1c(O)cc(CCCCC)c(C(=O)O)c1O` [CBDA, Cannabidiolic acid], the IC50 in experiment [1] was 11 µg/mL (≈ 30.7 µM); in experiment [2] it was 19 µg/mL (≈ 53 µM); in experiment [3] it was 7.7 µg/mL (≈ 21.5 µM).
